Data reported in ChEMBL document CHEMBL5131513, “Protein S-Nitrosation: Biochemistry, Identification, Molecular Mechanisms, and Therapeutic Applications” (J Med Chem, 2022).
One block for each compound: values may come before it.

Tests used:
[1] = Inhibition of NMDA-induced nNOS/PSD95 in rat cortical neurons preincubated for 30 mins followed by NMDA addition in presence of glutamate/glycine measured after 24 hrs by immunoprecipitation assay; format: cell-based; conditions: cortical neuron
[2] = species on record: Homo sapiens; experiment: Inhibition of nNOS (unknown origin)/CAPON (unknown origin) protein-protein interaction assessed as residual activity by coimmunoprecipitation assay relative to control; design: concentration or dose not given beside the values
[3] = Inhibition of recombinant nNOS (1 to 299 residues) (unknown origin)/biotin-tagged PSD95 (unknown origin) protein-protein interaction by DELFIA; design: species or system Homo sapiens
[4] = Inhibition of human GSNOR

Structure (SMILES): COC(=O)[C@H](NCCC(=O)O)C(C)C
Activity [2]: 87.8%

Structure (SMILES): O=C(O)c1ccc(NCCc2cc(Cl)cc(Cl)c2O)cc1O
IC50 [1]: 597000 nM

Structure (SMILES): Cc1cc(NS(C)(=O)=O)ccc1-n1c(CCC(=O)O)ccc1-c1ccc(-n2ccnc2C)s1
IC50 [4]: 43 nM

Structure (SMILES): O=C(O)c1ccc(C#Cc2ccc(O)cc2Cl)c(CCCn2cnnn2)c1
IC50 [4]: < 50 nM

Structure (SMILES): COC(=O)[C@@H](Cc1ccccc1)NC(=O)CC(=O)O
Activity [2]: 76.6%

Structure (SMILES): COC(=O)[C@@H](NC(=O)CC(=O)O)C(C)C
Activity [2]: 37.5%

Structure (SMILES): O=C(O)c1ccc(NCc2cc(Br)ccc2O)cc1O
IC50 [1]: 10300 nM

Structure (SMILES): Cc1cc(C(N)=O)ccc1-n1c(CCC(=O)O)ccc1-c1ccc(Br)cc1
IC50 [4]: 70 nM

Structure (SMILES): O=C(O)c1ccc(NCc2cc(F)ccc2O)cc1O
IC50 [1]: 880 nM

Structure (SMILES): COC(=O)[C@H](NC(=O)CC(=O)O)C(C)C
Activity [2]: 30.5%

Structure (SMILES): O=C(O)c1cc(NCc2cc(Cl)cc(Cl)c2O)ccc1O
IC50 [1]: 870000 nM

Structure (SMILES): NC(=O)c1ccc(-c2cc(C(=O)O)ccc2C#Cc2ccc(O)cc2Cl)cc1
IC50 [4]: < 50 nM

Second part, the compound after the results:

IC50 [1]: 40100 nM
Structure (SMILES): O=C(O)c1ccc(NCc2cc(Cl)ccc2O)cc1O

Activity [2]: 75%
Structure (SMILES): CC(C)[C@@H](NC(=O)CC(=O)O)C(=O)O

IC50 [3]: 31000 nM
Structure (SMILES): Oc1c(Cl)cc(Cl)cc1CNc1ccc2nn[nH]c2c1

IC50 [4]: 23 nM
Structure (SMILES): Cc1nccn1-c1ccc(-c2ccc(CCC(=O)O)n2-c2ccc(S(N)(=O)=O)cc2)s1

IC50 [4]: 55 nM
Structure (SMILES): Cc1cc(C(N)=O)ccc1-n1c(CCC(=O)O)ccc1-c1ccc(Cl)cc1O

IC50 [4]: 39 nM
Structure (SMILES): O=C(O)CCc1ccc(-c2ccc(-n3ccnc3)cc2)n1-c1ccc(O)cc1

IC50 [1]: 82 nM
Structure (SMILES): O=C(O)c1ccc(NCc2cc(Cl)cc(Cl)c2O)cc1O

Activity [2]: 61.8%
Structure (SMILES): COC(=O)CCC(=O)N[C@@H](C(=O)OC)C(C)C

IC50 [4]: < 50 nM
Structure (SMILES): Cc1cc(-n2ccnc2)ccc1-c1cc2sc(C(=O)O)cc2n1-c1ccc(C(N)=O)c(OCC(C)C)c1

IC50 [4]: 22 nM
Structure (SMILES): Cc1cc(S(N)(=O)=O)ccc1-n1c(CCC(=O)O)ccc1-c1ccc(-n2ccnc2C)s1

IC50 [4]: 29 nM
Structure (SMILES): Cc1cc(NS(C)(=O)=O)ccc1-n1c(CCC(=O)O)ccc1-c1ccc(-n2ccnc2)cc1

IC50 [1]: 11200 nM
Structure (SMILES): COC(=O)c1ccc(NCc2cc(Cl)cc(Cl)c2O)cc1O

Activity [2]: 26.3%
Structure (SMILES): COC(=O)CC(=O)N[C@@H](C(=O)OC)C(C)C

IC50 [4]: 56 nM
Structure (SMILES): COc1cc(Cl)ccc1-c1ccc(CCC(=O)O)n1-c1ccc(C(N)=O)cc1C

IC50 [4]: < 100 nM
Structure (SMILES): CCOc1cc([C@@H]2NC(=O)NC(c3cccnc3)=C2c2ccsc2)cc(C(=O)O)c1O

Activity [2]: 49.4%
Structure (SMILES): COC(=O)[C@H](NC(=O)Cc1nnn[nH]1)C(C)C

IC50 [4]: 36 nM
Structure (SMILES): Cc1nccn1-c1ccc(-c2ccc(CCC(=O)O)n2-c2ccc(O)cc2)s1
